Counter-ions that a name gives are not always drawn. Like-named read-outs stand apart in the source and are kept apart here. One block for each molecule: values may come before it.
Columns and labels:
JAK2 tyrosine kinase = target: T1, JAK2 tyrosine kinase (Homo sapiens, UniProt O60674); assay: Test 1: inhibitory activity to JAK2 tyrosine kinase (ELISA); format: biochemical; settings: 25 μM ATP in substrate solution, 30° C. for 1 hour, n=2
T1 construct: purchased Carnabioscience Co
Summary of the method: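 Human JAK2 (diluted to 0.75 nM before addition) phosphorylated a biotinylated peptide on streptavidin plates for 1 h at 30 °C. The substrate mix held 625 nM peptide, 25 μM ATP and 25 mM MgCl2 in 15 mM Tris pH 7.5, 0.01% Tween-20 and 1 mM DTT. Phosphotyrosine was detected by HRP antibody/TMB at 450 nm, and IC50 was obtained by non-linear regression; duplicates were run.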

JAK3 tyrosine kinase = target: T2, JAK3 tyrosine kinase (Homo sapiens, UniProt P52333); assay: Test 1: inhibitory activity to JAK3 tyrosine kinase (ELISA); format: biochemical; settings: 25 μM ATP in substrate solution, 30° C. for 1 hour, n=2
T2 construct: purchased Carnabioscience Co
T2 sequence (P52333 1-1124): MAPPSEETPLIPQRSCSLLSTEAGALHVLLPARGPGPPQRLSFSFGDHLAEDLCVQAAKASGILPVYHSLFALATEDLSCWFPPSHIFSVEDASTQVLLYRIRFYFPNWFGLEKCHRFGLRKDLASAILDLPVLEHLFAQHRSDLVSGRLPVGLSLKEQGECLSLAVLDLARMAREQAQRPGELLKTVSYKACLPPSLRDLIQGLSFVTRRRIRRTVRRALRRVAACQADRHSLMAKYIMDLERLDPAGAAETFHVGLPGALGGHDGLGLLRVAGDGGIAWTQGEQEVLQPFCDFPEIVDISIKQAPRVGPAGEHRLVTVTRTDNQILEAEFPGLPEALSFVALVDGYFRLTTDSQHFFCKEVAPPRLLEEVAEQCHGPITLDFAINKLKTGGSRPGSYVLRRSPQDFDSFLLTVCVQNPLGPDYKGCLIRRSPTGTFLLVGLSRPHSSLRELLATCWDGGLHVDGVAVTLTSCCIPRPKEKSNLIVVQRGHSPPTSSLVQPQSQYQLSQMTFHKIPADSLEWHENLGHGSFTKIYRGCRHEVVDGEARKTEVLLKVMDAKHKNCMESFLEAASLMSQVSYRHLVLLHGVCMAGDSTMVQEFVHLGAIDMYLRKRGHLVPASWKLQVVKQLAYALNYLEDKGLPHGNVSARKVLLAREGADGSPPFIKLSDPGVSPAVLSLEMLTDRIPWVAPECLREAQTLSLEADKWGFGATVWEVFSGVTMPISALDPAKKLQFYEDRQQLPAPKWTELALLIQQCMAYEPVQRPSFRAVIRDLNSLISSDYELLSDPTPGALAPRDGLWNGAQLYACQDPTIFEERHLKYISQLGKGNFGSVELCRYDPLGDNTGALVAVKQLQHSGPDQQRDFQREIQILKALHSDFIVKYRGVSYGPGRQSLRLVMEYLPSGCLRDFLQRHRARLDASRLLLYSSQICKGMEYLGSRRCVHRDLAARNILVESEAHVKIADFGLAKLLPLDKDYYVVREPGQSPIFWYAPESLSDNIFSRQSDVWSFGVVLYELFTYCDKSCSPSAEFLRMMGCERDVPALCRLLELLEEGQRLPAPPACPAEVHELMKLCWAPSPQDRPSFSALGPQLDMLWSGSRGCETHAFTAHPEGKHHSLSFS
Summary of the method: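 ELISA of JAK3 kinase activity with absorbance read at 450 nm. Compounds were tested from DMSO dilution series at 100-fold the measurement concentrations (1000–0.01 μM), diluted up to 20 times in assay buffer, against a DMSO negative control. IC50 was estimated by non-linear regression of absorbance.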

[1] = target: BaF3 cells into which JAK2 V617F gene was introduced (Homo sapiens, UniProt O60674, V617F, cells depend on it); assay: Test 2: growth inhibitory action against variant JAK2 expressed cells (MTT method); format: cell-based; settings: incubation for 3 days, triplicate, read-out: concentration of the test material which inhibited 50% of the cell growth (IC50)
BaF3 cells into which JAK2 V617F gene was introduced, sequence (O60674 whole entry V617F): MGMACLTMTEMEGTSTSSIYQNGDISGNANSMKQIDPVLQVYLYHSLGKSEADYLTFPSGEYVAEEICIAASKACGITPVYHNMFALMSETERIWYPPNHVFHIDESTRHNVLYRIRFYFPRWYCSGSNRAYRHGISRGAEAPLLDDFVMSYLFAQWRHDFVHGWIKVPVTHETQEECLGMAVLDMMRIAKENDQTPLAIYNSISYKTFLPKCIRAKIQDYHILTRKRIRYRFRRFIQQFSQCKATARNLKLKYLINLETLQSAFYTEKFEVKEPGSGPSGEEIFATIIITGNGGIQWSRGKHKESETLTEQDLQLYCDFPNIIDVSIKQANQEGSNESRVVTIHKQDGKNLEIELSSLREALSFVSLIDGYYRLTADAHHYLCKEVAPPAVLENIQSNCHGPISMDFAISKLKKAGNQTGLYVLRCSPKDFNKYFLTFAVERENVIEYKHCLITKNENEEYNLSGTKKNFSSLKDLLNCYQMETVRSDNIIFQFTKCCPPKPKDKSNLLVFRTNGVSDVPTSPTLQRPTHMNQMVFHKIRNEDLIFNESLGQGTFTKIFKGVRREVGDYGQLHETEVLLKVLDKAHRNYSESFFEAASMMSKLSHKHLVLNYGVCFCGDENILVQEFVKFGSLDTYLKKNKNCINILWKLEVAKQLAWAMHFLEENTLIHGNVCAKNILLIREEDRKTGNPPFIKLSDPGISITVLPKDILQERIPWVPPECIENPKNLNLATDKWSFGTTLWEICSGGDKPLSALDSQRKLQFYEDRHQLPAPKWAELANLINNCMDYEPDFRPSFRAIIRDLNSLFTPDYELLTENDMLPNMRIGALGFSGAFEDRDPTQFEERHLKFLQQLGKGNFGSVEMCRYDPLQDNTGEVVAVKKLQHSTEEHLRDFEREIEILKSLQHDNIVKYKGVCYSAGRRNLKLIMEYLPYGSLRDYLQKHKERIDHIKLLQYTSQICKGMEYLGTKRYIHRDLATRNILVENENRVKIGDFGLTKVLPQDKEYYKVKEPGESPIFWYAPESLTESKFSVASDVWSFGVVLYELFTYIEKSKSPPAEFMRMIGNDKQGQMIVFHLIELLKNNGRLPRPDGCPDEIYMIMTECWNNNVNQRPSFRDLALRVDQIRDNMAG
Experimental: Test 2: Growth inhibitory action against variant JAK2 expressed cells
BaF3 cells into which JAK2 V617F gene was introduced ([…]) were inoculated on a 96-well plate in an amount of 1×10^3 cells/well and allowed to stand in a CO2 incubator. Next day, the test material was added to the cells. The test material was serially diluted with DMSO to give 10 mM, 6 mM, 3 mM, 1 mM, 600 μM, 300 μM, 100 μM, 60 μM, 30 μM, or 10 μM solution. This was diluted 100 times with distilled water to give 100 μM, 60 μM, 30 μM, 10 μM, 6 μM, 3 μM, 1 μM, 600 nM, 300 nM, or 100 nM solution. This solution of test material was added to the well in an amount of 10 μl/well. As a negative control, 1% DMSO solution was added to the well in an amount of 10 μl/well. In the above operation, the final concentration of the test material became 10 μM, 6 μM, 3 μM, 1 μM, 600 nM, 300 nM, 100 nM, 60 nM, 30 nM, 10 nM, or 0 nM (0.1% DMSO solution). The addition of the test material solution to each well was made in triplicate.
After continuous incubation for 3 days, the viable count was determined by an MTT method. The MTT method was carried out as follows. First, 10 μl each of solution containing 5 mg/ml of MTT (3-(4,5-dimethylthiazol-2-yl)-2,5-diphenyltetrazolium bromide) was added to each well. The plate was allowed to stand in a CO2 incubator for 4 hours, and then 100 μl of 0.04N HCl/2-propanol solution was added to each well to stop the reaction. The generated MTT-formazan was dissolved well with a multi-channel pipette, and the absorbance at 595 nm was measured with reference to that at 655 nm (Thermo Co.; Multiskan FC). Non-linear regression analysis was made by means of a SAS system (SAS Institute Inc.), and the concentration (IC50) of the test material which inhibited 50% of the cell growth was estimated.

T1 sequence (O60674 whole entry): as the sequence (O60674 whole entry V617F) above, with F617V counted along it

Structure (SMILES): C[C@H](Nc1nc(Nc2cnccn2)cc(N2CCC(O)C2)n1)c1ccc(F)cc1 (stereo partly drawn) [Example 50, 1-{2-[(S)-1-(4-Fluorophenyl)ethylamino]-6-(pyrazin-2-ylamino)pyrimidin-4-yl}pyrrolidin-3-ol hydrochloride]
IC50 (JAK2 tyrosine kinase): 0.84 nM
IC50 (JAK3 tyrosine kinase): 29 nM
GI50 [1]: 53 nM

Structure (SMILES): C[C@H](Nc1nc(Nc2cnccn2)cc(N2CC(N3CCCC3)C2)n1)c1ccc(F)cc1 [Example 222, (S)—N^2-[1-(4-Fluorophenyl)ethyl]-N^4-(pyrazin-2-yl)-6-[3-(pyrrolidin-1-yl)azetidin-1-yl]pyrimidine-2,4-diamine]
IC50 (JAK2 tyrosine kinase): 0.75 nM
IC50 (JAK3 tyrosine kinase): 18 nM
GI50 [1]: 66 nM

Structure (SMILES): C[C@H](Nc1nc(Nc2cnccn2)cc(N2CCC(C(N)=O)CC2)n1)c1ccc(F)cc1 [Example 56, (S)-1-{2-[1-(4-Fluorophenyl)ethylamino]-6-(pyrazin-2-ylamino)pyrimidin-4-yl}piperidine-4-carboxamide hydrochloride]
IC50 (JAK2 tyrosine kinase): 0.79 nM
IC50 (JAK3 tyrosine kinase): 24 nM
GI50 [1]: 81 nM

Structure (SMILES): C[C@H](Nc1nc(Nc2cnccn2)cc(N2CC(N(C)C)C2)n1)c1ccc(F)cc1 [Example 220, (S)-6-[3-(Dimethylamino)azetidin-1-yl]-N^2-[1-(4-fluorophenyl)ethyl]-N^4-(pyrazin-2-yl)pyrimidine-2,4-diamine]
IC50 (JAK2 tyrosine kinase): 0.98 nM
IC50 (JAK3 tyrosine kinase): 24 nM
GI50 [1]: 64 nM

Structure (SMILES): C[C@H](Nc1cc(-c2cnn(C)c2)cc(Nc2cnccn2)n1)c1ccc(F)cc1 [Example 30, (S)—N^2-[1-(4-Fluorophenyl)ethyl]-4-(1-methyl-1H-pyrazol-4-yl)-N^6-(pyrazin-2-yl)pyridine-2,6-diamine maleate]
IC50 (JAK2 tyrosine kinase): 1.5 nM
IC50 (JAK3 tyrosine kinase): 75 nM
GI50 ([1]; maleate): 60 nM

Structure (SMILES): C[C@H](Nc1nc(Nc2cnccn2)cc(N2CC(N3CCC(O)CC3)C2)n1)c1ccc(F)cc1 [Example 225]
IC50 (JAK2 tyrosine kinase): 0.69 nM
IC50 (JAK3 tyrosine kinase): 13 nM
GI50 [1]: 64 nM

Structure (SMILES): C[C@H](Nc1nc(Nc2cnccn2)cc(N2CC(CO)C2)n1)c1ccc(F)cc1 [Example 228, (S)-(1-{2-[1-(4-Fluorophenyl)ethylamino]-6-(pyrazin-2-ylamino)pyrimidin-4-yl}azetidin-3-yl)methanol]
IC50 (JAK2 tyrosine kinase): 1.1 nM
IC50 (JAK3 tyrosine kinase): 19 nM
GI50 [1]: 89 nM

Continued, values first:

IC50 (JAK2 tyrosine kinase): 0.49 nM
IC50 (JAK3 tyrosine kinase): 43 nM
GI50 [1]: 70 nM
Structure (SMILES): CC(=O)N[C@H]1CCN(c2cc(Nc3cnccn3)nc(N[C@@H](C)c3ccc(F)cc3)n2)C1 [Example 2, N-{(S)-1-[2-{[(S)-1-(4-Fluorophenyl)ethyl]amino-}-6-(pyrazin-2-ylamino)pyrimidin-4-yl]pyrrolidin-3-yl}acetamide hydrochloride]

IC50 (JAK2 tyrosine kinase): 0.55 nM
IC50 (JAK3 tyrosine kinase): 32 nM
GI50 [1]: 88 nM
Structure (SMILES): CC(=O)NCC1CN(c2cc(Nc3cnccn3)nc(N[C@@H](C)c3ccc(F)cc3)n2)C1 [Example 232, (S)—N-[(1-{2-[1-(4-Fluorophenyl)ethylamino]-6-(pyrazin-2-ylamino)pyrimidin-4-yl}azetidin-3-yl)methyl]acetamide]

IC50 (JAK2 tyrosine kinase): 0.69 nM
IC50 (JAK3 tyrosine kinase): 67 nM
GI50 [1]: 64 nM
Structure (SMILES): C[C@H](Nc1nc(Nc2cnccn2)cc(N2CCC3(CC2)COC(=O)O3)n1)c1ccc(F)cc1 [Example 112, (S)-8-{2-[1-(4-Fluorophenyl)ethylamino]-6-(pyrazin-2-ylamino)pyrimidin-4-yl}-1,3-dioxo-8-azaspiro[4.5]decan-2-one]

IC50 (JAK2 tyrosine kinase): 0.27 nM
IC50 (JAK3 tyrosine kinase): 8.9 nM
GI50 [1]: 93 nM
Structure (SMILES): C[C@H](Nc1nc(Nc2cnccn2)cc(N2CCN(S(C)(=O)=O)CC2)n1)c1ccc(F)cc1 [Example 65, (S)—N^2-[1-(4-Fluorophenyl)ethyl]-6-[4-(methylsulfonyl)piperazin-1-yl]-N^4-(pyrazin-2-yl)pyrimidine-2,4-diamine hydrochloride]

IC50 (JAK2 tyrosine kinase): 0.52 nM
IC50 (JAK3 tyrosine kinase): 42 nM
GI50 [1]: 89 nM
Structure (SMILES): CC(=O)N[C@@H]1CCN(c2cc(Nc3cnccn3)nc(N[C@@H](C)c3ccc(F)cc3)n2)C1 [Example 27, N—((R)-1-{2-[(S)-1-(4-Fluorophenyl)ethylamino]-6-(pyrazin-2-ylamino)pyrimidin-4-}pyrrolidin-3-yl)acetamide hydrochloride]

IC50 (JAK2 tyrosine kinase): 0.59 nM
IC50 (JAK3 tyrosine kinase): 44 nM
GI50 ([1]; hydrochloride): 71 nM
Structure (SMILES): C[C@H](Nc1cc(-c2cnn(C)c2)cc(Nc2cnccn2)n1)c1ccc(F)cc1 [Example 4, (S)—N^2-[1-(4-Fluorophenyl)ethyl]-4-(1-methyl-1H-pyrazol-4-yl)-N^6-(pyrazin-2-yl)pyridine-2,6-diamine hydrochloride]
